According to patent publication US6046171A, “6,11-bridged erythromycin derivatives” (priority 1998, dated 2000):
Converted amounts (≈) assume the structure as drawn.

Assays:
Type in all cases: cell-based
[1] = test system: Streptococcus Pheumoniae 5649; assay: in vitro antibacterial MIC, agar dilution; settings: organism code ZZA; 35-37° C., 20 to 24 hours; unit assumed
Procedure: (§1) Representative compounds of the present invention were assayed in vitro for antibacterial activity as follows: Twelve petri dishes containing successive aqueous dilutions of the test compound mixed with 10 mL of sterilized Brain Heart Infusion (BHI) agar (Difco 0418-01-5) were prepared. Each plate was inoculated with 1:100 (or 1:10 for slow-growing strains, such as Micrococcus and Streptococcus) dilutions of up to 32 different microorganisms, using a Steers replicator block. […] In addition, a control plate, using BHI agar containing no test compound, was prepared and incubated at the beginning and end of each test.
(§2) An additional plate containing a compound having known susceptibility patterns for the organisms being tested and belonging to the same antibiotic class as the test compound was also prepared and incubated as a further control, as well as to provide test-to-test comparability.
(§3) After incubation, each plate was visually inspected. The minimum inhibitory concentration (MIC) was defined as the lowest concentration of drug yielding no growth, a slight haze, or sparsely isolated colonies on the inoculum spot as compared to the growth control.

[2] = test system: Enterococcus faecium ATCC 8Q43; assay: in vitro antibacterial MIC, agar dilution; settings: organism code II; 35-37° C., 20 to 24 hours; unit assumed
Procedure: as §1, §2, §3

[3] = test system: Haemophilis Influenzae DILL AMP R; assay: in vitro antibacterial MIC, agar dilution; settings: organism code WW; 35-37° C., 20 to 24 hours; unit assumed
Procedure: as §1, §2, §3

[4] = test system: Streptococcus bovis A-5169; assay: in vitro antibacterial MIC, agar dilution; settings: organism code JJ; 35-37° C., 20 to 24 hours; unit assumed
Procedure: as §1, §2, §3

[5] = test system: Streptococcus Pheumoniae 5979; assay: in vitro antibacterial MIC, agar dilution; settings: organism code ZZ; 35-37° C., 20 to 24 hours; unit assumed
Procedure: as §1, §2, §3

[6] = test system: Staphylococcus aureus CMX 553; assay: in vitro antibacterial MIC, agar dilution; settings: organism code FF; 35-37° C., 20 to 24 hours; unit assumed
Procedure: as §1, §2, §3

[7] = test system: Mycobacterium smegmatis ATCC 114; assay: in vitro antibacterial MIC, agar dilution; settings: organism code UU; 35-37° C., 20 to 24 hours; unit assumed
Procedure: as §1, §2, §3

[8] = test system: Micrococcus luteus ATCC 9341; assay: in vitro antibacterial MIC, agar dilution; settings: organism code OO; 35-37° C., 20 to 24 hours; unit assumed
Procedure: as §1, §2, §3

[9] = test system: Escherichia coli SS; assay: in vitro antibacterial MIC, agar dilution; settings: organism code RR; 35-37° C., 20 to 24 hours; unit assumed
Procedure: as §1, §2, §3

[10] = test system: Micrococcus luteus ATCC 4698; assay: in vitro antibacterial MIC, agar dilution; settings: organism code PP; 35-37° C., 20 to 24 hours; unit assumed
Procedure: as §1, §2, §3

[11] = test system: Staphylococcus aureus A5177; assay: in vitro antibacterial MIC, agar dilution; settings: organism code BB; 35-37° C., 20 to 24 hours; unit assumed
Procedure: as §1, §2, §3

[12] = test system: Streptococcus agalactiae CMX 508; assay: in vitro antibacterial MIC, agar dilution; settings: organism code KK; 35-37° C., 20 to 24 hours; unit assumed
Procedure: as §1, §2, §3

[13] = test system: Nocardia Asteroides ATCC9970; assay: in vitro antibacterial MIC, agar dilution; settings: organism code VV; 35-37° C., 20 to 24 hours; unit assumed
Procedure: as §1, §2, §3

[14] = test system: Staphylococcus epidermidis 3519; assay: in vitro antibacterial MIC, agar dilution; settings: organism code HH; 35-37° C., 20 to 24 hours; unit assumed
Procedure: as §1, §2, §3

[15] = test system: Streptococcus pyogenes PIU 2548; assay: in vitro antibacterial MIC, agar dilution; settings: organism code NN; 35-37° C., 20 to 24 hours; unit assumed
Procedure: as §1, §2, §3

[16] = test system: Streptococcus pyogenes EES61; assay: in vitro antibacterial MIC, agar dilution; settings: organism code LL; 35-37° C., 20 to 24 hours; unit assumed
Procedure: as §1, §2, §3

[17] = test system: Staphylococcus aureus NCTC10649M; assay: in vitro antibacterial MIC, agar dilution; settings: organism code EE; 35-37° C., 20 to 24 hours; unit assumed
Procedure: as §1, §2, §3

[18] = test system: Staphylococcus aureus CMX 642A; assay: in vitro antibacterial MIC, agar dilution; settings: organism code DD; 35-37° C., 20 to 24 hours; unit assumed
Procedure: as §1, §2, §3

[19] = test system: Staphylococcus aureus ATCC 6538P; assay: in vitro antibacterial MIC, agar dilution (BHI agar, Steers replicator); settings: organism code AA; 35-37° C., 20 to 24 hours; unit assumed
Procedure: as §1, §2, §3

[20] = test system: Streptococcus Pheumoniae ATCC6303; assay: in vitro antibacterial MIC, agar dilution; settings: organism code XX; 35-37° C., 20 to 24 hours; unit assumed
Procedure: as §1, §2, §3

| Compound | MIC [1] [µg/mL] | MIC [2] [µg/mL] | MIC [3] [µg/mL] | MIC [4] [µg/mL] | MIC [5] [µg/mL] | MIC [6] [µg/mL] | MIC [7] [µg/mL] | MIC [8] [µg/mL] | MIC [9] [µg/mL] | MIC [10] [µg/mL] | MIC [11] [µg/mL] | MIC [12] [µg/mL] | MIC [13] [µg/mL] | MIC [14] [µg/mL] | MIC [15] [µg/mL] | MIC [16] [µg/mL] | MIC [17] [µg/mL] | MIC [18] [µg/mL] | MIC [19] [µg/mL] | MIC [20] [µg/mL] |
| --- | --- | --- | --- | --- | --- | --- | --- | --- | --- | --- | --- | --- | --- | --- | --- | --- | --- | --- | --- | --- |
| CC[C@H]1OC(=O)[C@H](C)[C@@H](O[C@H]2C[C@@](C)(OC)[C@@H](O)[C@H](C)O2)[C@H](C)[C@@H](O[C@@H]2O[C@H](C)C[C@H](N(C)C)[C@H]2O)[C@@]2(C)C[C@@H](C)C(=O)[C@H](C)[C@H]3N(CCCCO2)C(=O)O[C@]13C [Example 15] | 16 (≈ 19.7 µM) | 0.1 (≈ 0.123 µM) | 32 (≈ 39.4 µM) | 0.05 (≈ 0.0615 µM) | > 128 |  |  |  |  |  |  |  |  |  |  |  |  |  |  |  |
| CC[C@H]1OC(=O)[C@H](C)C(=O)[C@H](C)[C@@H](O[C@@H]2O[C@H](C)C[C@H](N(C)C)[C@H]2O)[C@@]2(C)C[C@@H](C)C(=O)[C@H](C)[C@H]3N(CC=CCO2)C(=O)O[C@]13C [Example 16] |  | 0.2 (≈ 0.307 µM) | 32 (≈ 49.2 µM) | 0.2 (≈ 0.307 µM) | > 128 | 0.39 (≈ 0.599 µM) | 6.2 (≈ 9.53 µM) | 0.2 (≈ 0.307 µM) | 0.78 (≈ 1.2 µM) | 0.39 (≈ 0.599 µM) | 0.39 (≈ 0.599 µM) | 0.2 (≈ 0.307 µM) | 0.39 (≈ 0.599 µM) | 0.39 (≈ 0.599 µM) | 0.39 (≈ 0.599 µM) | 0.2 (≈ 0.307 µM) | 0.39 (≈ 0.599 µM) | 0.39 (≈ 0.599 µM) | 0.39 (≈ 0.599 µM) |  |
| CC[C@H]1OC(=O)[C@H](C)[C@@H](O[C@H]2C[C@@](C)(OC)[C@@H](O)[C@H](C)O2)[C@H](C)[C@@H](O[C@@H]2O[C@H](C)C[C@H](N(C)C)[C@H]2O)[C@@]2(C)C[C@@H](C)C(=O)[C@H](C)[C@H]3N(CCC=CCO2)C(=O)O[C@]13C [Example 17] | 8 (≈ 9.7 µM) | 0.05 (≈ 0.0606 µM) | 8 (≈ 9.7 µM) |  | > 128 | 0.1 (≈ 0.121 µM) | 0.2 (≈ 0.242 µM) | 0.02 (≈ 0.0242 µM) |  | 0.1 (≈ 0.121 µM) |  |  | 0.02 (≈ 0.0242 µM) | 0.2 (≈ 0.242 µM) |  | 0.02 (≈ 0.0242 µM) | 0.2 (≈ 0.242 µM) | 0.2 (≈ 0.242 µM) | 0.1 (≈ 0.121 µM) |  |
| CC[C@H]1OC(=O)[C@H](C)C(=O)[C@H](C)[C@@H](O[C@@H]2O[C@H](C)C[C@H](N(C)C)[C@H]2O)[C@@]2(C)C[C@@H](C)C(=O)[C@H](C)[C@H]3N(CCC=CCO2)C(=O)O[C@]13C [Example 18] | 2 (≈ 3.01 µM) | 0.39 (≈ 0.587 µM) | 128 (≈ 193 µM) | 0.2 (≈ 0.301 µM) | > 128 | 0.78 (≈ 1.17 µM) |  | 0.39 (≈ 0.587 µM) |  | 0.78 (≈ 1.17 µM) | 0.78 (≈ 1.17 µM) | 0.2 (≈ 0.301 µM) | 0.78 (≈ 1.17 µM) |  |  | 0.2 (≈ 0.301 µM) | 0.78 (≈ 1.17 µM) | 0.78 (≈ 1.17 µM) | 0.78 (≈ 1.17 µM) | 1 (≈ 1.5 µM) |
| CC[C@H]1OC(=O)[C@H](C)[C@@H](O[C@H]2C[C@@](C)(OC)[C@@H](O)[C@H](C)O2)[C@H](C)[C@@H](O[C@@H]2O[C@H](C)C[C@H](N(C)C)[C@H]2O)[C@@]2(C)C[C@@H](C)C(=O)[C@H](C)[C@H]3N(CC(O)CC=CCO2)C(=O)O[C@]13C (stereo partly drawn) [Example 19] | 16 (≈ 18.7 µM) | 0.1 (≈ 0.117 µM) | 8 (≈ 9.36 µM) | 0.02 (≈ 0.0234 µM) | > 128 |  |  | 0.05 (≈ 0.0585 µM) |  |  |  | 0.05 (≈ 0.0585 µM) | 0.05 (≈ 0.0585 µM) |  | 12.5 (≈ 14.6 µM) | 0.05 (≈ 0.0585 µM) |  |  |  |  |
